pIC50: −log10 of the molar value.
Target: Tyrosine-protein kinase Yes (Homo sapiens) (UniProt P07947)
Assay: YES1 kinase inhibition, dose response, biochemical, Z'-LYTE, FRET readout, direct format (AID 1671438)
Details: Z'-LYTE FRET kinase activity, recombinant YES1

Tyrosine-protein kinase Yes (Homo sapiens), sequence (P07947 whole entry, looked up): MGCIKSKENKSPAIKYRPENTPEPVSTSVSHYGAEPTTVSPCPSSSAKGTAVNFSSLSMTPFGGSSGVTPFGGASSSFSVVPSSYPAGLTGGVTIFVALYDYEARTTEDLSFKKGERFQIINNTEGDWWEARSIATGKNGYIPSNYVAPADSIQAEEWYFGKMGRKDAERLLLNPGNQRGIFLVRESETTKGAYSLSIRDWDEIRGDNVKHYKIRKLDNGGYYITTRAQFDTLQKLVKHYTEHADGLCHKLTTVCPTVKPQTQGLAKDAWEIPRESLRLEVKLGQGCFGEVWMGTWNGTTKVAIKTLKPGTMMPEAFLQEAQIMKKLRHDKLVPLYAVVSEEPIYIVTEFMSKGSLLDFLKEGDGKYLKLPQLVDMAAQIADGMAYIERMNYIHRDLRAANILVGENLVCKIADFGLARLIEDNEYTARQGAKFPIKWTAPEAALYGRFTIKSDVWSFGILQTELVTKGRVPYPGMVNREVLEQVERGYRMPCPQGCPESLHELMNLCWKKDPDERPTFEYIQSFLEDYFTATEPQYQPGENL

pIC50: 6.03
Structure (SMILES): COc1cc2ncnc(Nc3cccc(Cl)c3)c2cc1OC
